Reference: patent publication US20230025510A1, “BIARYL ETHER-TYPE QUINAZOLINE DERIVATIVES” (DAIICHI SANKYO COMPANY, LIMITED, priority 2018, published 2023)

Key:
Type in all cases: cell-based
Ba/F3-Mock cells = assay: Cell proliferation suppression test (CellTiter-Glo, GI50), Ba/F3-Mock; conditions: Mus musculus, BaF3, 72 h, 5 ng/mL IL-3, 3 days, N=4
Protocol: (§1) Cell proliferation suppression test Ba/F3-Mock, Ba/F3-EGFR WT, Ba/F3-EGFR ins. ASV, and Ba/F3-EGFR ins. SVD cell lines were cultured based on a culture medium of 10% FBS-containing RPMI 1640 supplemented with 1.5 ug/mL puromycin, and 5 ng/mL IL-3 and 100 ng/mL of EGF were further added to the culture solution for Ba/F3-Mock and Ba/F3-EGFR WT, respectively. The cells were cultured in a CO2 incubator set at 37° C., 5% CO2. Specimens prepared by dilution were seeded into 384-well tissue culture plates with Echo555 (Labcyte Inc.), and the cells were seeded thereto at 400 cells/well for Ba/F3-Mock, Ba/F3-EGFR WT, and Ba/F3-EGFR ins. SVD and at 200 cells/well for Ba/F3-EGFR ins. ASV (day 0), then they were cultured for an additional 3 days. On the day of the compound addition (day 0) and 3 days after the compound addition (day 3), ATP quantity was measured with CellTiter-Glo (registered trademark) 2.0 (Promega Corporation.), and used as an indicator of cell quantity (N=4). In the test, puromycin-free culture medium was used. Concentrations at which cell proliferation from day 0 to day 3 was inhibited by 50% (GIso) were calculated with EXCEL.

Ba/F3-EGFR WT cells = assay: Cell proliferation suppression test (CellTiter-Glo, GI50), Ba/F3-EGFR WT; conditions: Mus musculus, 72 h, 100 ng/mL EGF, 3 days, N=4
Protocol: as §1

[1] = test system: Ba/F3-EGFR ins. ASV cells; assay: Cell proliferation suppression test (CellTiter-Glo, GI50), Ba/F3-EGFR ins. ASV; conditions: Mus musculus, 72 h, 3 days, N=4
Protocol: as §1

[2] = test system: Ba/F3-EGFR ins. SVD cells; assay: Cell proliferation suppression test (CellTiter-Glo, GI50), Ba/F3-EGFR ins. SVD; conditions: Mus musculus, 72 h, 3 days, N=4
Protocol: as §1

Compound	GI50 (Ba/F3-EGFR WT cells)	GI50 [1]	GI50 [2]	GI50 (Ba/F3-Mock cells)
C=CC(=O)N1CCC(Oc2cc3c(Nc4ccc(Oc5ccn(C(=O)NC(C)C)n5)cc4F)ncnc3cc2OC)CC1 [Example 6, 3-{3-Fluoro-4-[(7-methoxy-6-{[1-(prop-2-enoyl)piperidin-4-yl]oxy}quinazolin-4-yl)amino]phenoxy}-N-(propan-2-yl)-1H-pyrazole-1-carboxamide]	175 nM	19.2 nM	19.2 nM	5660 nM
COc1cc2ncnc(Nc3ccc(Oc4cccc(-c5nnc(C)o5)c4)cc3F)c2cc1NC(=O)/C=C/CN1CCCC1 [Example 50, (2E)-N-(4-{2-Fluoro-4-[3-(5-methyl-1,3,4-oxadiazol-2-yl)phenoxy]anilino}-7-methoxyquinazolin-6-yl)-4-(pyrrolidin-1-yl)but-2-enamide]	240 nM	10.9 nM	62.2 nM	750 nM
COc1cc2ncnc(Nc3ccc(Oc4cccc(-c5nnc(C)o5)c4)cc3F)c2cc1NC(=O)/C=C/CN(C)C [Example 39, (2E)-4-(Dimethylamino)-N-(4-{2-fluoro-4-[3-(5-methyl-1,3,4-oxadiazol-2-yl)phenoxy]anilino}-7-methoxyquinazolin-6-yl)but-2-enamide]	161 nM	12.2 nM	58.7 nM	1150 nM
[2H]C([2H])([2H])Oc1cc2ncnc(Nc3ccc(Oc4ccn(C(=O)NC(C)(C)C)n4)cc3F)c2cc1OC1CCN(C(=O)C=C)CC1 [Example 20, N-tert-Butyl-3-{3-fluoro-4-[(7-[(^2H3)methyloxy]-6-{[1-(prop-2-enoyl)piperidin-4-yl]oxy}quinazolin-4-yl)amino]phenoxy}-1H-pyrazole-1-carboxamide]	171 nM	18.6 nM	9 nM	> 10000 nM
COc1cc2ncnc(Nc3ccc(Oc4nc(-c5nnc(C6CC6)o5)cs4)cc3F)c2cc1NC(=O)/C=C/CN1CC[C@@H](OC)C1 [Example 63, (2E)-N-[4-(4-{[4-(5-Cyclopropyl-1,3,4-oxadiazol-2-yl)-1,3-thiazol-2-yl]oxy}-2-fluoroanilino)-7-methoxyquinazolin-6-yl]-4-[(3R)-3-methoxypyrrolidin-1-yl]but-2-enamide]	129 nM	49.5 nM	81.8 nM	1060 nM
COc1cc2ncnc(Nc3ccc(Oc4nn(CC(=O)NC(C)(C)C)cc4F)cc3Cl)c2cc1NC(=O)/C=C/CN1CCOCC1 [Example 54, (2E)-N-{4-[4-({1-[2-(tert-Butylamino)-2-oxoethyl]-4-fluoro-1H-pyrazol-3-yl}oxy)-2-chloroanilino]-7-methoxyquinazolin-6-yl}-4-(morpholin-4-yl)but-2-enamide]	2890 nM	33.4 nM	50.6 nM	> 10000 nM
COc1cc2ncnc(Nc3ccc(Oc4cccc(-c5nnc(C(C)C)o5)c4)cc3F)c2cc1NC(=O)/C=C/CN(C)C [Example 43, (2E)-4-(Dimethylamino)-N-[4-(2-fluoro-4-{3-[5-(propan-2-yl)-1,3,4-oxadiazol-2-yl]phenoxy}anilino)-7-methoxyquinazolin-6-yl]but-2-enamide]	69.8 nM	5.5 nM	14.1 nM	806 nM
CCOc1cc2ncnc(Nc3ccc(Oc4cccc(-c5nnc(C6CC6)o5)c4)cc3F)c2cc1NC(=O)/C=C/CN(C)C [Example 51, (2E)-N-(4-{4-[3-(5-Cyclopropyl-1,3,4-oxadiazol-2-yl)phenoxy]-2-fluoroanilino}-7-ethoxyquinazolin-6-yl)-4-(dimethylamino)but-2-enamide]	104 nM	11.8 nM	20.5 nM	806 nM
COc1cc2ncnc(Nc3ccc(Oc4cccc(-c5nnc(C)s5)c4)cc3F)c2cc1NC(=O)/C=C/CN(C)C [Example 44, (2E)-4-(Dimethylamino)-N-(4-{2-fluoro-4-[3-(5-methyl-1,3,4-thiadiazol-2-yl)phenoxy]anilino}-7-methoxyquinazolin-6-yl)but-2-enamide]	167 nM	15.5 nM	52.2 nM	724 nM
COc1cc2ncnc(Nc3ccc(Oc4nn(CC(=O)NC(C)(C)C)cc4F)cc3Cl)c2cc1NC(=O)/C=C/CN1CC[C@@H](F)C1 [Example 56, (2E)-N-{4-[4-({1-[2-(tert-Butylamino)-2-oxoethyl]-4-fluoro-1H-pyrazol-3-yl}oxy)-2-chloroanilino]-7-methoxyquinazolin-6-yl}-4-[(3R)-3-fluoropyrrolidin-1-yl]but-2-enamide]	635 nM	8.5 nM	4.6 nM	4680 nM

Continued, in another order:

GI50 (Ba/F3-EGFR WT cells)	GI50 [1]	GI50 [2]	Compound	GI50 (Ba/F3-Mock cells)
280 nM	17.1 nM	15.3 nM	C=CC(=O)N1CCC(Oc2cc3c(Nc4ccc(Oc5ccn(-c6ccnc(OC)c6)n5)cc4F)ncnc3cc2OC)CC1 [Example 9, 1-(4-{[4-(2-Fluoro-4-{[1-(2-methoxypyridin-4-yl)-1H-pyrazol-3-yl]oxy}anilino)-7-methoxyquinazolin-6-yl]oxy}piperidin-1-yl)prop-2-en-1-one]	9590 nM
386 nM	23.5 nM	20.2 nM	C=CC(=O)N1CCC(Oc2cc3c(Nc4ccc(Oc5cccc(-c6nnc(C)o6)c5)cc4F)ncnc3cc2OCF)CC1 [Example 19, 1-(4-{[7-(Fluoromethoxy)-4-{2-fluoro-4-[3-(5-methyl-1,3,4-oxadiazol-2-yl)phenoxy]anilino}quinazolin-6-yl]oxy}piperidin-1-yl)prop-2-en-1-one]	4920 nM
290 nM	11.3 nM	12.5 nM	C=CC(=O)N1CCC(Oc2cc3c(Nc4ccc(Oc5nc(-c6cnc(C)c(F)c6)cs5)cc4F)ncnc3cc2OC)CC1 [Example 11, 1-(4-{[4-(2-Fluoro-4-{[4-(5-fluoro-6-methylpyridin-3-yl)-1,3-thiazol-2-yl]oxy}anilino)-7-methoxyquinazolin-6-yl]oxy}piperidin-1-yl)prop-2-en-1-one]	> 10000 nM
157 nM	11.3 nM	7.9 nM	C=CC(=O)N1CCC(Oc2cc3c(Nc4ccc(Oc5ccn(-c6ccnc(Cl)c6)n5)cc4F)ncnc3cc2OC)CC1 [Example 29, 1-(4-{[4-(4-{[1-(2-Chloropyridin-4-yl)-1H-pyrazol-3-yl]oxy}-2-fluoroanilino)-7-methoxyquinazolin-6-yl]oxy}piperidin-1-yl)prop-2-en-1-one]	> 10000 nM
213 nM	14.8 nM	12.9 nM	C=CC(=O)N1CCC(Oc2cc3c(Nc4ccc(Oc5nc(-c6ccc(OC)nc6)cs5)cc4F)ncnc3cc2OC)CC1 [Example 35, 1-(4-{[4-(2-Fluoro-4-{[4-(6-methoxypyridin-3-yl)-1,3-thiazol-2-yl]oxy}anilino)-7-methoxyquinazolin-6-yl]oxy}piperidin-1-yl)prop-2-en-1-one]	> 10000 nM
370 nM	40.6 nM	30 nM	C=CC(=O)N1CCC(Oc2cc3c(Nc4ccc(Oc5cccc(-c6cn(C)nn6)c5)cc4Cl)ncnc3cc2OC)CC1 [Example 3, 1-{4-[(4-{2-Chloro-4-[3-(1-methyl-1H-1,2,3-triazol-4-yl)phenoxy]anilino}-7-methoxyquinazolin-6-yl)oxy]piperidin-1-yl}prop-2-en-1-one]	9930 nM
